Assay results taken from PubChem BioAssay AID1963850 (Molecular Pharmacology Branch, DTP, NCI, 2024).

System: 192522-019-R-J2-PDC complex tumor spheroid viability
Assay: Anticancer human tumor 192522-019-R-J2-PDC patient-derived colon adenocarcinoma cell line growth inhibition [POLQ]
Settings: for IC50: curve of first compound; for viability, T/C: stronger effect = lower value
Experimental: Multicellular complex tumor spheroid response to Polymerase (POL) inhibitors (novobiocin, ART-558, RP6685) in combination with a variety of drugs and investigational agents in selected tumor cell lines
The POL inhibitors (novobiocin, ART-558, and RP6685) were evaluated both individually and in combination with standard of care and investigational anticancer small molecules within a complex spheroid model of solid tumors. . Complex spheroids include a stromal component modeled by human endothelial cells (HUVEC) and fibroblasts modeled by human mesenchymal stem cells (MSCs). The concentration ranges selected for each drug and investigational agent were based upon clinically achievable concentrations if the clinical Cmax of the agent was known.
Compounds. The drugs and investigational agents: novobiocin (NSC847541), ART-558 (NSC835418), RP-6685 (NSC848927), peposertib (NSC802822), ceralasertib (NSC780249), elimusertib (NSC800525), camonsertib (NSC841442), AZD-1390 (NSC803789), olaparib (NSC753686), talazoparib (NSC767125), rucaparib (NSC756644), sotorasib (NSC818433), MRTX-1133 (NSC836407), SN-38 (NSC673596), topotecan (NSC609699), epotoside (NSC141540), doxorubicin (NSC123127), gemcitabine (NSC613327), 5-fluorouracil (NSC19893), paclitaxel (NSC125973), vemurafenib (NSC761431), MSA-2 (NSC828583), SN-011 (NSC837082), adavosertib (NSC754352), prexasertib (NSC758257), carboplatin (NSC241240) and oxaliplatin (NSC266046), were obtained from the National Cancer Institute (NCI) Developmental Therapeutics Program Chemical Repository (21). The FDA-approved anticancer drug set is available from the Developmental Therapeutics Program at https://dtp.cancer.gov/organization/dscb/obtaining/. […] The stock solutions were prepared in dimethyl sulfoxide (DMSO, Sigma-Aldrich, St. Louis, MO, cat. D2650), except for the platinum compounds which were prepared in saline (Quality Biological, Gaithersburg, MD, cat. 114-055-101), at 800-fold the tested concentration and stored at -70 degrees C prior to their use. All drugs and investigational agents were tested over a range starting from a high concentration at or near the clinical Cmax and decreasing in half-log increments. If the clinical Cmax for an agent had not been determined, the highest concentration tested was 10 microM, except for SN-38, which was tested at a high concentration of 1 microM.
Cell Culture. All cells were maintained in an incubator at 37 degrees C and 5% CO2 with 95% humidity. The PDC lines were cultured according to standard operating procedures established by the NCI PDMR (https://pdmr.cancer.gov). Table 3 of the manuscript, lists the cell lines along with the number of the three cell types plated to form the mct-spheroids and media for tumor cell growth. After thawing, all PDC lines, except 997537-175-T-J1-PDC and 415267-285-R-J2-PDC, were cultured in Matrigel-coated flasks prepared with a working solution of 1X Ham's F-12 nutrient mix, without supplementation (Thermo Fisher Scientific, cat. 11765054), 100 U/mL penicillin-streptomycin (Thermo Fisher Scientific, cat. 15140122), and 2.5% Matrigel (Corning Inc., Corning, NY, cat. 354248) for the first three passages. The two PDC lines 997537-175-T-J1-PDC and 415267-285-R-J2-PDC were cultured on uncoated flasks. The 857933-349-R-J2-PDC line was cultured in 6C/Colon 1B media containing advanced DMEM/F-12 (Thermo Fisher Scientific, cat. 12634028), 10 mM HEPES (Thermo Fisher Scientific, cat. 15630080), 1X GlutaMAX supplement (Thermo Fisher Scientific, cat. 35050061), 0.1 mg/mL primocin (InvivoGen, San Diego, CA, cat. ant-pm-2), 10% defined fetal bovine serum, heat inactivated (HyClone Laboratories Inc., Logan, UT, cat. SH30070.03HI), 50% L-WRN conditioned media (ATCC, cat. CRL-3276), 1.25 mM N-Acetyl-L-cysteine (Sigma-Aldrich, cat. A9165), 10 mM nicotinamide (Sigma-Aldrich, cat. N0636), 1X B-27 supplement (Thermo Fisher Scientific, cat. 17504044), 1X N-2 supplement (Thermo Fisher Scientific, cat. […]

[1] = second compound 0.0316 µM, first compound 0.0316 µM
[2] = second compound 0.0316 µM, first compound 0.1 µM
[3] = second compound 0.0316 µM, first compound 0.316 µM
[4] = second compound 0.0316 µM, first compound 1 µM
[5] = second compound 0.0316 µM, first compound 3.16 µM
[6] = second compound 0.0316 µM, first compound 10 µM
[7] = second compound 0.1 µM, first compound 0.0316 µM
[8] = second compound 0.1 µM, first compound 0.1 µM
[9] = second compound 0.1 µM, first compound 0.316 µM
[10] = second compound 0.1 µM, first compound 1 µM
[11] = second compound 0.1 µM, first compound 3.16 µM
[12] = second compound 0.1 µM, first compound 10 µM
[13] = second compound 0.316 µM, first compound 0.0316 µM
[14] = second compound 0.316 µM, first compound 0.1 µM
[15] = second compound 0.316 µM, first compound 0.316 µM
[16] = second compound 0.316 µM, first compound 1 µM
[17] = second compound 0.316 µM, first compound 3.16 µM
[18] = second compound 0.316 µM, first compound 10 µM
[19] = second compound 1 µM, first compound 0.0316 µM
[20] = second compound 1 µM, first compound 0.1 µM
[21] = second compound 1 µM, first compound 0.316 µM
[22] = second compound 1 µM, first compound 1 µM
[23] = second compound 1 µM, first compound 3.16 µM
[24] = second compound 1 µM, first compound 10 µM
[25] = second compound 3.16 µM, first compound 0.0316 µM
[26] = second compound 3.16 µM, first compound 0.1 µM
[27] = second compound 3.16 µM, first compound 0.316 µM
[28] = second compound 3.16 µM, first compound 1 µM
[29] = second compound 3.16 µM, first compound 3.16 µM
[30] = second compound 3.16 µM, first compound 10 µM
[31] = second compound 10 µM, first compound 0.0316 µM
[32] = second compound 10 µM, first compound 0.1 µM
[33] = second compound 10 µM, first compound 0.316 µM
[34] = second compound 10 µM, first compound 1 µM
[35] = second compound 10 µM, first compound 3.16 µM
[36] = second compound 10 µM, first compound 10 µM
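Also: spheroids exposed to drugs for seven days before reading.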
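For viability, T/C in this document: 100% = DMSO vehicle control viability in luminescence.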

With `COc1cc(C2c3cc4c(cc3C(OC3OC5COC(C)OC5C(O)C3O)C3COC(=O)C23)OCO4)cc(OC)c1O` (centres undefined) + COC1C(OC(N)=O)C(O)C(Oc2ccc3c(O)c(NC(=O)c4ccc(O)c(CC=C(C)C)c4)c(=O)oc3c2C)OC1(C)C the IC50 (second compound 0.0316 µM) was greater than 10 µM, the IC50 (second compound 0.1 µM) was greater than 10 µM and the IC50 (second compound 0.316 µM) was greater than 10 µM. For the same compound, the IC50 (second compound 1 µM) was greater than 10 µM, the IC50 (second compound 3.16 µM) was greater than 10 µM and the IC50 (second compound 10 µM) was greater than 10 µM. For the same compound, the viability, T/C [1] was 106%, the viability, T/C [2] was 89.3% and the viability, T/C [3] was 92.4%. The viability, T/C [4] was 82.1%, the viability, T/C [5] was 58.6% and the viability, T/C [6] was 54.2%. The viability, T/C [7] was 104%, the viability, T/C [8] was 95.7% and the viability, T/C [9] was 100%. For the same compound, the viability, T/C [10] was 84%, the viability, T/C [11] was 56.8% and the viability, T/C [12] was 59.4%. The viability, T/C [13] was 95.6%, the viability, T/C [14] was 97.8% and the viability, T/C [15] was 101%. It also gave a viability, T/C [16] of 83%, a viability, T/C [17] of 55.2% and a viability, T/C [18] of 64%. For the same compound, the viability, T/C [19] was 106%, the viability, T/C [20] was 101% and the viability, T/C [21] was 96.6%. It also gave a viability, T/C [22] of 103%, a viability, T/C [23] of 59.7% and a viability, T/C [24] of 57.4%. For the same compound, the viability, T/C [25] was 110%, the viability, T/C [26] was 109% and the viability, T/C [27] was 99.9%. For the same compound, the viability, T/C [28] was 84.7%, the viability, T/C [29] was 67% and the viability, T/C [30] was 60.6%. It also gave a viability, T/C [31] of 107%, a viability, T/C [32] of 96.2% and a viability, T/C [33] of 103%. The viability, T/C [34] was 88.5%, the viability, T/C [35] was 65.4% and the viability, T/C [36] was 61.4%.

`COc1cccc2c1C(=O)c1c(O)c3c(c(O)c1C2=O)CC(O)(C(=O)CO)CC3OC1CC(N)C(O)C(C)O1` (centres undefined) + COC1C(OC(N)=O)C(O)C(Oc2ccc3c(O)c(NC(=O)c4ccc(O)c(CC=C(C)C)c4)c(=O)oc3c2C)OC1(C)C gave an IC50 (second compound 0.0316 µM) greater than 10 µM, an IC50 (second compound 0.1 µM) greater than 10 µM and an IC50 (second compound 0.316 µM) greater than 10 µM. For the same compound, the IC50 (second compound 1 µM) was greater than 10 µM, the IC50 (second compound 3.16 µM) was greater than 10 µM and the IC50 (second compound 10 µM) was greater than 10 µM. For the same compound, the viability, T/C [1] was 94.3%, the viability, T/C [2] was 79.1% and the viability, T/C [3] was 64.9%. The viability, T/C [4] was 78.1%, the viability, T/C [5] was 65.2% and the viability, T/C [6] was 55.3%. The viability, T/C [7] was 104%, the viability, T/C [8] was 84.4% and the viability, T/C [9] was 65.6%. For the same compound, the viability, T/C [10] was 78.4%, the viability, T/C [11] was 61.2% and the viability, T/C [12] was 55.2%. It also gave a viability, T/C [13] of 98.2%, a viability, T/C [14] of 86.4% and a viability, T/C [15] of 61.3%. It also gave a viability, T/C [16] of 79.3%, a viability, T/C [17] of 61.9% and a viability, T/C [18] of 55.6%. It also gave a viability, T/C [19] of 104%, a viability, T/C [20] of 92.8% and a viability, T/C [21] of 68.7%. For the same compound, the viability, T/C [22] was 76.3%, the viability, T/C [23] was 71% and the viability, T/C [24] was 53.1%. It also gave a viability, T/C [25] of 101%, a viability, T/C [26] of 85.5% and a viability, T/C [27] of 69.5%. For the same compound, the viability, T/C [28] was 73%, the viability, T/C [29] was 67% and the viability, T/C [30] was 54.7%. It also gave a viability, T/C [31] of 102%, a viability, T/C [32] of 87.4% and a viability, T/C [33] of 66.5%. For the same compound, the viability, T/C [34] was 78%, the viability, T/C [35] was 70.8% and the viability, T/C [36] was 58.6%.
